Laboratory results as given in patent US20240325409A1, “Fused Heterotetracyclic Antiviral Agents” (Enanta Pharmaceuticals, Inc., priority 2023, published 2024).

test system: HDV; experiment: HDV infection of HepG2-NTCP cells, viral RNA by RT-qPCR; type: cell-based; settings: 288 h, 800 GE/cell, viral RNA at day 12 post infection, 50% reduction relative to DMSO controls, read-out: Cellular EC50
Method: (§1) HepG2-NTCP A3 cells were maintained in DMEM media supplemented with GlutaMAX™, 10% fetal bovine serum, 1% penicillin/streptomycin, and 5 ug/mL puromycin at 37° C. in a humidified atmosphere with 5% CO2 in a collagen-coated tissue culture flask.
HDV virus collected from the supernatants of HuH7-END cells was purified in the presence of 6% polyethylene glycol (PEG). Viral titer was then quantified by RT-qPCR using HDV specific primers against a reference standard. For HDV infection, HepG2-NTCP cells were seeded in 96-well plates at 60,000 cells/well. On the day of infection, compounds were 4-fold serially diluted in DMSO and pre-incubated with HepG2-NTCP cells for two hours before infecting with 800 GE/cell of HDV in 4% PEG. On day one post infection, HDV-containing media was aspirated, cells were washed once with PBS and then maintained in 2.5% DMSO containing media for the remainder of the assay. Viral RNA was isolated using RNeasy kits (Qiagen) at day 12 post infection and reverse transcribed into cDNA using High-Capacity RNA-to-cDNA Kit (Thermo Fisher). Relative HDV gene expression was quantified by RT-qPCR after normalization to expression of a housekeeping gene. Irrespective of readout, compound concentrations that reduce viral RNA by 50% relative to DMSO controls (EC50) are reported. EC50 ranges are as follows: A<0.1 µM; B 0.1-1 µM; C>1 µM.

EC50 [nM] | SMILES
< 100 | CN1[C@H](C2CCC2)CN(c2ccccc2)c2cc3c(cc2S1(=O)=O)-c1cc(C(=O)O)ccc1CO3 [Example 1, (R)-10-cyclobutyl-11-methyl-8-phenyl-8,9,10,11-tetrahydro-5H-benzo[3,4]chromeno[7,6-f][1,2,5]thiadiazepine-2-carboxylic acid 12,12-dioxide]

test system: HBV; experiment: HBV infection of HepG2-NTCP cells, HBeAg AlphaLISA readout; type: cell-based; settings: Hepatitis B virus, 192 h, 2000 GE/cell, HBeAg in supernatant at day 8 post infection, 50% reduction relative to DMSO controls, read-out: Cellular EC50
Method: as §1
HepG2-NTCP cells were seeded in 384 well plate containing 16,000 cells/well two days prior to the infection. On the day of infection, compounds were 3-fold serially diluted in DMSO and pre-incubated with HepG2-NTCP cells for two hours before purified HBV addition. HBV infection was carried out at 2000 GE/cell with 4% PEG, and the final concentration of DMSO is 0.5%. On day one post infection, HBV-containing media was aspirated, cells were washed once with PBS and then maintained in 2.5% DMSO containing media for the remainder of the assay.
Supernatants from infected HepG2-NTCP cells were collected at day 8 post infection, and the amount of viral antigen HBeAg was measured by HBeAg AlphaLISA detection kit (PerkinElmer) following the manufacturer's recommended protocol. Irrespective of readout, compound concentrations that reduce viral product accumulation in supernatants by 50% relative to DMSO controls (EC50) are reported. EC50 ranges are as follows: A<0.1 µM; B 0.1-1 µM; C>1 µM.

SMILES | EC50 [nM]
CCCC[C@@H]1CN(c2ccccc2)c2cc3c(cc2S(=O)(=O)N1C)-c1cc(C(=O)O)ccc1CO3 [Example 7, (R)-10-butyl-11-methyl-8-phenyl-8,9,10,11-tetrahydro-5H-benzo[3,4]chromeno[7,6-f][1,2,5]thiadiazepine-2-carboxylic acid 12,12-dioxide] | < 100
CCCC[C@@H]1CN(c2ccccc2)c2cc3c(cc2S(=O)(=O)N1C)-c1cc(C(=O)O)ccc1[C@@H](C(F)(F)F)O3 [Example 21b, (5S,10R)-10-butyl-11-methyl-8-phenyl-5-(trifluoromethyl)-8,9,10,11-tetrahydro-5H-benzo[3,4]chromeno[7,6-f][1,2,5]thiadiazepine-2-carboxylic acid 12,12-dioxide] | 100 to 1000
CN1[C@H](CC(C)(C)C)CN(c2ccccc2)c2cc3c(cc2S1(=O)=O)-c1cc(C(=O)O)ccc1CO3 [Example 5] | < 100
CCCC[C@@H]1CN(c2ccccc2)c2cc3c(cc2S(=O)(=O)N1C)-c1cc(C(=O)O)ccc1[C@H](C(F)(F)F)O3 [Example 21a, (5R,10R)-10-butyl-11-methyl-8-phenyl-5-(trifluoromethyl)-8,9,10,11-tetrahydro-5H-benzo[3,4]chromeno[7,6-f][1,2,5]thiadiazepine-2-carboxylic acid 12,12-dioxide] | 100 to 1000
CC(C)C[C@@H]1CN(c2ccccc2)c2cc3c(cc2S(=O)(=O)N1C)-c1cc(C(=O)O)ccc1CO3 [Example 4, (R)-10-isobutyl-11-methyl-8-phenyl-8,9,10,11-tetrahydro-5H-benzo[3,4]chromeno[7,6-f][1,2,5]thiadiazepine-2-carboxylic acid 12,12-dioxide] | < 100
CC(C)C[C@@H]1CN(C2CC3(CCC3)C2)c2cc3c(cc2S(=O)(=O)N1C)-c1cc(C(=O)O)c(F)c(F)c1CO3 [Example 38] | < 100
CN1[C@H](C2CCC2)CN(c2ccccc2)c2cc3c(cc2S1(=O)=O)-c1sc(C(=O)O)cc1CO3 [Example 36, (R)-9-cyclobutyl-10-methyl-7-phenyl-7,8,9,10-tetrahydro-4H-thieno[3′,2′:3,4]chromeno[7,6-f][1,2,5]thiadiazepine-2-carboxylic acid 11,11-dioxide] | < 100

Second part, the molecule after the results:

EC50 [nM] | SMILES
> 1000 | CN1[C@H](C2CCCCC2)CN(c2ccccc2)c2cc3c(cc2S1(=O)=O)-c1cc(C(=O)O)ccc1CN3c1ccccc1F [Example 30]
< 100 | CCCC[C@@H]1CN(c2ccccc2)c2cc3c(cc2S(=O)(=O)N1C)-c1cc(C(=O)O)ccc1CN3C [Example 27, (R)-10-butyl-6,11-dimethyl-8-phenyl-5,6,8,9,10,11-hexahydro-[1,2,5]thiadiazepino[7,6-b]phenanthridine-2-carboxylic acid 12,12-dioxide]
100 to 1000 | CCCC[C@@H]1CN(c2ccccc2)c2cc3c(cc2S(=O)(=O)N1C)-c1cc(C(=O)O)ccc1CN3C(C)C [Example 28]
100 to 1000 | CC(C)[C@@H]1CN(c2ccccc2)c2cc3c(cc2S(=O)(=O)N1C)-c1cc(C(=O)O)ccc1CO3 [Example 6]
100 to 1000 | CN1[C@H](C2CCCCC2)CNc2cc3c(cc2S1(=O)=O)-c1cc(C(=O)O)ccc1CN3c1ccccc1F [Example 32]
100 to 1000 | CN1[C@H](C2CCC2)CN(c2ccccc2)c2cc3c(cc2S1(=O)=O)-c1cc(C(=O)O)ccc1CO3 [Example 1, (R)-10-cyclobutyl-11-methyl-8-phenyl-8,9,10,11-tetrahydro-5H-benzo[3,4]chromeno[7,6-f][1,2,5]thiadiazepine-2-carboxylic acid 12,12-dioxide]
